Assay results from patent US6380182B1, “Methods and compositions controlling biofouling using sulfamic acids” (priority 1997, dated 2002).
“And” between values parts separate entries of the source, which are not always exact repeats. Equal values may be shown once.

What was measured:
Format in all cases: cell-based
[1] = tested on: Bacteria of the genera Bacillus, Flavobacterium, and Pseudomonas; assay: Bioreactor bacterial adhesion test, quantitative inhibition of bacterial adhesion (IBA) by crystal violet absorbance at 586 nm; settings: 100 ppm, acetone solvent, 168 h incubation at 26-28 C, 50% or greater considered effective
Procedure: The test method, construction of bioreactors, bacterial growth medium, preparation of bacterial inocula, and biofilm production/chemical testing is the same as outlined in EXAMPLE 3. After 168 h (1 week) of incubation at 26-28 C, the slides were removed from the bioreactors and were positioned vertically to […] using a staining procedure. The slides were briefly flamed in order to fix the cells to the surface, and then transferred for one minute to a container of Gram Crystal Violet (DIFCO Laboratories, Detroit, Mich.). The slides were gently rinsed under running tap water, carefully blotted, and again allowed to air dry overnight The degree of bacterial adhesion was then determined by a quantitative method of evaluation. The pair of glass slides and the pair of stainless steel slides corresponding to each treatment were placed each in Petri plate with 10 mL ethanol (technical) to remove the crystal violet staining the cells attached to the slides. A 1 mL aliquot of the crystal violet ethanol solution obtained in each Petri plate was transferred each to a test tube with 9 mL of deionized sterile water ( 1/10 dilution). The blank for calibration of the optical instrument used for the evaluation was a solution of 1 mL of ethanol in 9 mL of deionized sterile water. The absorbance (ABS) of each solution was determined using a spectrophotometer (Spectronic 21, Bausch and Lomb) at a wavelength of 586 nm. The inhibition of bacterial adhesion (IBA) was calculated: IBA=100 (ABS control−ABS treatment)\ABS control 90 or >% IBA=essentially no bacterial adhesion 89-70% IBA=scant 69-50% IBA=slight 30% IBA=moderate 29-<29% IBA=moderate Compounds which receive 50% IBA or greater were considered effective to prevent the adhesion of bacteria to the submerged slides.

[2] = tested on: E. Aerogenes; assay: Minimum inhibitory concentration, 18 hour Basal Salts test; settings: for MIC pH8: pH 8; for MIC pH6: pH 6
[3] = tested on: Bacteria of the genera Bacillus, Flavobacterium, and Pseudomonas; assay: Bioreactor bacterial adhesion test, visual biofilm scoring of crystal violet stained slides; parameters: key: 0=essentially none; 1=scant; 2=slight; 3=moderate; 4=heavy; settings: Glass slides; 100 ppm; acetone solvent; 3 days; average of four replicate slides; 0-2 considered effective
Source text: Test Method: The following method effectively defines the ability of a chemical compound to inhibit bacterial adhesion, or attack the formation of existing attached microorganisms, on various types of surfaces. As an overview, bioreactors were constructed in which approximately 1 in.×3 in. slides (glass or stainless steel) were fixed to the edge of the bioreactor. The lower ends (approx. 2 in.) of the slides dipped into a bacterial growth medium (pH 7) within the bioreactor which contained a known concentration of the test chemical. Following inoculation with known bacterial species, the test solutions were stirred continuously for 3 days. Unless otherwise indicated in the results below, the medium within the bioreactor was turbid by the end of three days. […] A staining procedure was then used on the slides in order to determine the amount of bacteria attached to the surfaces of the slides.
Construction of Bioreactors: The bioreactors comprised a 400 ml glass beaker over which a lid (cover from a standard 9 cm diameter glass petri dish) was placed. With the lid removed, slides of the material of choice were taped at one end with masking tape and suspended inside the bioreactor from the top edge of the beaker. This allows the slides to be submerged within the test medium. Typically, four slides (replicates) were uniformly spaced around the bioreactor. The score presented below are the average of the four replicates. A magnetic stirring bar was placed in the bottom of the unit, the lid positioned, and the bioreactor autoclaved. Two different types of material were used as slides, stainless steel as a metal and glass as a hydrophillic surface.
Bacterial Growth Medium: The liquid medium utilized in the bioreactors was described previously by Delaquis, et al., “Detachment Of Pseudomonas fluorescens From Biofilms On Glass Surfaces In Response To Nutrient Stress”, Microbial Ecology 18:199-210, 1989. The composition of the medium was:
The medium was autoclaved and then allowed to cool. If a sediment formed in the autoclaved medium, the medium was resuspended by shaking before use.
Preparation of Bacterial Inocula: Bacteria of the genera Bacillus, Flavobacterium, and Pseudomonas were isolated from a paper mill slime deposit and maintained in continuous culture. The test organisms were separately streaked onto plate count agar and incubated at 30° C. for 24 hours. With a sterile cotton swab, portions of the colonies were removed and suspended in sterile water. […]
Biofilm Production/Chemical Testing: To four separate bioreactors was added 200 ml of the sterile medium prepared above. Chemicals to be evaluated as biodispersants were first prepared as a stock solution (40 mg/2 ml) using either water or a 9:1 acetone: methanol mixture (ac/MeOH) as a solvent. […]

Molecule	Score (% IBA) 168 h Incub. ([1]; Glass slides)	Score (% IBA) 168 h Incub. ([1]; SS (stainless steel) slides)	MIC pH8 [2]	Score (biofilm score) [3]	MIC pH6 [2]
CCCCNS(=O)(=O)O [a, butyl sulfamic acid]	0 % IBA	66 % IBA	>500	–	–
CCCCCNS(=O)(=O)O [b, amyl sulfamic acid]	65 % IBA	14 % IBA	>500	–	–
CCCCCCCCNS(=O)(=O)O [c, octyl sulfamic acid]	41 % IBA	54 % IBA	>100	–	–
CCCCCCCCN(CCCCCCCC)S(=O)(=O)O [d, dioctyl sulfamic acid]	–	–	>100	3	–
CCCCCCCCCCCCNS(=O)(=O)O [e, dodecyl sulfamic acid]	82 % IBA and 72 % IBA	78 % IBA and 70 % IBA	–	3.8	–
CCCCCCCCCCCCN(CCCCCCCCCCCC)S(=O)(=O)O [f, didodecyl sulfamic acid]	27 % IBA	15 % IBA	–	2.00	–
CCCCCCCCCCCCCCCCCCNS(=O)(=O)O [g, octadecyl sulfamic acid]	–	–	>500	–	–
O=S(=O)(O)N(C1CCCCC1)C1CCCCC1 [h, dicyclohexyl sulfamic acid]	44 % IBA	57 % IBA	>100	–	>500
O=S(=O)(O)NN1CCOCC1 [i, morpholino sulfamic acid]	47 % IBA	39 % IBA	>100	–	>500
piperidinyl sulfamic acid [j]	40 % IBA	68 % IBA	>100	2.5	>100
